# Counter-ions that a name gives are not always drawn.
# Tests used:
# [1] = molecular target: T1, human muscarinic acetylcholine M3 receptor (Homo sapiens, UniProt P20309); assay: Muscarinic 3 receptor binding assay ([3H]NMS competition, SPA), pIC50; conditions: [3H]NMS 0.1 nM, CHO-K1 cell membranes expressing human M3 receptor
# T1 construct: expressed in transfected cells; host or cells: CHO-K1 (Chinese Hamster Ovary) cell membranes
# Method: Muscarinic 3 Receptor Binding Assay
# The affinity (pIC50) of compounds binding to the M3 receptor is determined by competition binding of [^3H]N-methyl scopolamine (NMS) to CHO-K1 (Chinese Hamster Ovary) cell membranes expressing the human muscarinic acetylcholine M3 receptor (M3-ACh) in a scintillation proximity assay (SPA) format.
# SPA beads are precoated with membranes and then incubated at 2 mg of beads per well with serial dilutions of compounds of the invention, [^3H]NMS at 0.1 nM, quarter Kd (experimentally determined dissociation constant) and assay buffer (20 mM HEPES pH 7.4 containing 5 mM MgCl2 and 0.1% (w/v) bovine serum albumin). The assay is conducted in a final volume of 200 μL, in the presence of 1% (v/v) dimethyl sulphoxide (DMSO). Total binding of [^3H]NMS is determined in the absence of competing compound and non-specific binding of [^3H]NMS is determined in the presence of 1 μM atropine. The plates are incubated for 16 hours at room temperature and then read on Wallac Microbeta™ using a normalised ^3H protocol. The pIC50, defined as the negative logarithm of the molar concentration of compound required for 50% reduction in specific [^3H]-NMS binding, is determined.
# Adrenergic β2 = molecular target: T2, Adrenergic β2 (Homo sapiens, UniProt P07550); assay: Adrenergic β2 mediated cAMP production in H292 cells (AlphaScreen), concentration response; format: cell-based; conditions: for EC50: 60 min, 300 μM rolipram, read-out: β2 pEC50 (converted); for β2 Intrinsic Activity: fraction relative to the maximum activity determined for formoterol
# T2 construct: Adherent H292 cells are removed from tissue culture flasks by treatment with Accutase™ cell detachment solution; endogenous in cells; host or cells: H292 cells
# T2 sequence (P07550 whole entry): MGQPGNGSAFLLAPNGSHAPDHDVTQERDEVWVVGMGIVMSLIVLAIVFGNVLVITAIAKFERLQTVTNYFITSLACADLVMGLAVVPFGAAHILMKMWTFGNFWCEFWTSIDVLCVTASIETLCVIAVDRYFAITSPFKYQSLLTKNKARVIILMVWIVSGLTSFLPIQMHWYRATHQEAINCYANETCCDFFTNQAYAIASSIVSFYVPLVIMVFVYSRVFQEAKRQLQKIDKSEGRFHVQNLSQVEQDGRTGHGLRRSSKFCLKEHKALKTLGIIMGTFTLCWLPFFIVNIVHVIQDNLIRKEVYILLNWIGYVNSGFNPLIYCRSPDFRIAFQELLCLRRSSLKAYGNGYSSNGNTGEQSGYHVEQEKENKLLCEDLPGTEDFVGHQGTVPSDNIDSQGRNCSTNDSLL
# Method: Assay for Adrenergic 132 Mediated cAMP Production
# H292 cells are grown in 225 cm2 flasks incubator at 37° C., 5% CO2 in RPMI medium containing 10% (v/v) FBS (foetal bovine serum) and 2 mM L-glutamine.
# Adherent H292 cells re removed from tissue culture flasks by treatment with Accutase™ cell detachment solution for 15 minutes. Flasks are incubated for 15 minutes in a humidified incubator at 37° C., 5% CO2. Detached cells are re-suspended in RPMI media (containing 10% (v/v) FBS and 2 mM L-glutamine) at 0.1×10^6 cells per mL. 10000 cells in 100 μl, are added to each well of a tissue-culture-treated 96-well plate and the cells incubated overnight in a humidified incubator at 37° C., 5% CO2. The culture media is removed and cells are washed twice with 100 μL assay buffer and replaced with 50 μl assay buffer (HBSS solution containing 10 mM HEPES pH7.4 and 5 mM glucose). Cells are rested at room temperature for 20 minutes after which time 25 μl of rolipram (1.2 mM made up in assay buffer containing 2.4% (v/v) dimethylsulphoxide) is added. Cells are incubated with rolipram for 10 minutes after which time test compounds are added and the cells are incubated for 60 minutes at room temperature. The final rolipram concentration in the assay is 300 μM and final vehicle concentration is 1% (v/v) dimethylsulphoxide. The reaction is stopped by removing supernatants, washing once with 100 μL assay buffer and replacing with 50 μL lysis buffer. The cell monolayer is frozen at −80° C. for 30 minutes (or overnight).
# AlphaScreen™ cAMP detection
# The concentration of cAMP (cyclic adenosine monophosphate) in the cell lysate is determined using AlphaScreen™ methodology. The frozen cell plate is thawed for 20 minutes on a plate shaker then 10 μL of the cell lysate is transferred to a 96-well white plate. 40 μL of mixed AlphaScreen™ detection beads pre-incubated with biotinylated cAMP, is added to each well and the plate incubated at room temperature for 3 hours in the dark. The AlphaScreen™ signal is measured using an EnVision spectrophotometer (Perkin-Elmer Inc.) with the recommended manufacturer's settings. cAMP concentrations are determined by reference to a calibration curve determined in the same experiment using standard cAMP concentrations. Concentration response curves for agonists are constructed and data is fitted to a four parameter logistic equation to determine both the pEC50 and Intrinsic Activity. Intrinsic Activity is expressed as a fraction relative to the maximum activity determined for formoterol in each experiment.
# T1 sequence (P20309 whole entry): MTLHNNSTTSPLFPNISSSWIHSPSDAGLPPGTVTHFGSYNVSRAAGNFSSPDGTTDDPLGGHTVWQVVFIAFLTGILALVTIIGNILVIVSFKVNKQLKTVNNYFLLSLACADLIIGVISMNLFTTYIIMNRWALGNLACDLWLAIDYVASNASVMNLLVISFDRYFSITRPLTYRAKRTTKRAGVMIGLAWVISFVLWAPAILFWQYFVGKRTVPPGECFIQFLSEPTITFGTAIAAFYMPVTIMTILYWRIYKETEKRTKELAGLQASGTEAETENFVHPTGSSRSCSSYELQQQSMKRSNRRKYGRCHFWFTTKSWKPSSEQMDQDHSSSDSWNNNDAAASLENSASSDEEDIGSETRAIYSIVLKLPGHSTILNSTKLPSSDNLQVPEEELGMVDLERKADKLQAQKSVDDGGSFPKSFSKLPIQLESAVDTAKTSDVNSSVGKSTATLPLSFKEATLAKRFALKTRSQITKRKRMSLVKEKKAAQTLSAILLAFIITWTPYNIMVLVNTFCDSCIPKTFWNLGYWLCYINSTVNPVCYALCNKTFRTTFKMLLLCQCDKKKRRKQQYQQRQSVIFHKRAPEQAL
IC50 [1],EC50 (Adrenergic β2),β2 Intrinsic Activity (Adrenergic β2),Structure (SMILES)
0.501 nM,39.8 nM,1.0,"CC(C)c1nc(C(=O)N2CCOC3(CCN(Cc4cccc(CCOCCC(=O)N(CCNCCc5ccc(O)c6c5OCC(=O)N6)[C@H](C)C(C)C)c4F)CC3)C2)cs1 [Example 12, R)-3-(2-Fluoro-3-((4-(2-isopropylthiazole-4-carbonyl)-1-oxa-4,9-diazaspiro[5.5]undecan-9-yl)methyl)phenethoxy)-N-(2-(2-(5-hydroxy-3-oxo-3,4-dihydro-2H-benzo[b][1,4]oxazin-8-yl)ethylamino)ethyl)-N-(3-methylbutan-2-yl)propanamide ditrifluoroacetate]"
1.58 nM,158 nM,1.0,"CC(C)(C)c1nc(C(=O)N2CCOC3(CCN(Cc4cccc(CCOCCC(=O)N(CCNCCc5ccc(O)c6c5OCC(=O)N6)C5CCCCC5)c4)CC3)C2)cs1 [Example 86, 3-(3-((4-(2-tert-Butylthiazole-4-carbonyl)-1-oxa-4,9-diazaspiro[5.5]undecan-9-yl)methyl)phenethoxy)-N-cyclohcxyl-N-(2-(2-(5-hydroxy-3-oxo-3,4-dihydro-2H-benzo[b][1,4]oxazin-8-yl)ethylamino)ethyl)propanamide]"
2 nM,12.6 nM,0.8,"CCN(CCNCCc1ccc(O)c2[nH]c(=O)sc12)C(=O)CCOCCc1cccc(CN2CCC3(CC2)CN(C(=O)c2csc(C(C)C)n2)CCO3)c1Cl [Example 28, 3-(2-Chloro-3-((4-(2-isopropylthiazole-4-carbonyl)-1-oxa-4,9-diazaspiro[5.5]undecan-9-yl)methyl)phenethoxy)-N-ethyl-N-(2-(2-(4-hydroxy-2-Oxo-2,3-dihydrobenzo[d]thiazol-7-yl)ethylamino)ethyl)propanamide ditrifluoroacetate]"
0.251 nM,158 nM,1.0,"CCC(CC)c1nc(C(=O)N2CCOC3(CCN(Cc4cccc(CCOCCC(=O)N(CCNCCc5ccc(O)c6c5OCC(=O)N6)C5CCCCC5)c4)CC3)C2)cs1 [Example 96, N-Cyclohexyl-N-(2-(2-(5-hydroxy-3-oxo-3,4-dihydro-2H-benzo[b][1,4]oxazin-8-yl)ethylamino)ethyl)-3-(3-((4-(2-(pentan-3-yl)thiazole-4-carbonyl)-1-oxa-4,9-diazaspiro[5.5]undecan-9-yl)methyl)phenethoxy)propanamide]"
2 nM,20 nM,0.7,"CCN(CCNCCc1ccc(O)c2[nH]c(=O)sc12)C(=O)CCOCCc1cccc(OCCCN2CCC3(CC2)CN(C(=O)c2csc(C(C)C)n2)CCO3)c1 [Example 61, N-Ethyl-N-(2-(2-(4-hydroxy-2-oxo-2,3-dihydrobenzo[d]thiazol-7-yl)ethylamino)ethyl)-3-(3-(3-(4-(2-isopropylthiazole-4-carbonyl)-1-oxa-4,9-diazaspiro[5.5]undecan-9-yl)propoxy)phenethoxy)propanamide ditrifluoroacetate]"
0.631 nM,25.1 nM,0.8,"CC(C)c1nc(C(=O)N2CCOC3(CCN(Cc4cccc(CCOCCC(=O)N(C)CCNCCc5ccc(O)c6[nH]c(=O)sc56)c4F)CC3)C2)cs1 [Example 13, 3-(2-Fluoro-3-((4-(2-isopropylthiazole-4-carbonyl)-1-oxa-4,9-diazaspiro[5.5]undecan-9-yl)methyl)phenethoxy)-N-(2-(2-(4-hydroxy-2-oxo-2,3-dihydrobenzo[d]thiazol-7-yl)ethylamino)ethyl)-N-methylpropanamide ditrifluoroacetate]"
1.58 nM,12.6 nM,0.9,"CCN(CCNCCc1ccc(O)c2[nH]c(=O)sc12)C(=O)CCOCCc1ccc(CCN2CCC3(CC2)CN(C(=O)c2csc(C(C)C)n2)CCO3)s1 [Example 52, N-Ethyl-N-(2-(2-(4-hydroxy-2-oxo-2,3-dihydrobenzo[d]thiazol-7-yl)ethylamino)ethyl)-3-(2-(5-(2-(4-(2-isopropylthiazole-4-carbonyl)-1-oxa-4,9-diazaspiro[5.5]undecan-9-yl)ethyl)thiophen-2-yl)ethoxy)propanamide ditrifluoroacetate]"
1 nM,79.4 nM,0.9,"CCc1cc(C(=O)N2CCOC3(CCN(Cc4cccc(CCOCCC(=O)N(CC)CCNCCc5ccc(O)c6c5OCC(=O)N6)c4F)CC3)C2)cs1 [Example 24, N-Ethyl-3-(3-((4-(5-ethylthiophene-3-carbonyl)-1-oxa-4,9-diazaspiro[5.5]undecan-9-yl)methyl)-2-fluorophenethoxy)-N-(2-(2-(5-hydroxy-3-oxo-3,4-dihydro-2H-benzo[b][1,4]oxazin-8-yl)ethylamino)ethyl)propanamide ditrifluoroacetate]"
0.398 nM,31.6 nM,0.7,"CCN(CCNCCc1ccc(O)c2c1OCC(=O)N2)C(=O)CCOCCc1cccc(CN2CCC3(CC2)CN(C(=O)c2csc(C(C)C)n2)CCO3)c1F [Example 15, N-Ethyl-3-(2-fluoro-3-((4-(2-isopropylthiazole-4-carbonyl)-1-oxa-4,9-diazaspiro[5.5]undecan-9-yl)methyl)phenethoxy)-N-(2-(2-(5-hydroxy-3-oxo-3,4-dihydro-2H-benzo[b][1,4]oxazin-8-yl)ethylamino)ethyl)propanamide ditrifluoroacetate]"
2 nM,158 nM,1.1,"CC(C)c1nc(C(=O)N2CCOC3(CCN(CCc4cc(CCOCCC(=O)N(CCNCCc5ccc(O)c6c5OCC(=O)N6)C5CCCCC5)cs4)CC3)C2)cs1 [Example 63, N-Cyclohexyl-N-(2-(2-(5-hydroxy-3-oxo-3,4-dihydro-2H-benzo[b][1,4]oxazin-8-yl)ethylamino)ethyl)-3-(2-(5-(2-(4-(2-isopropylthiazole-4-carbonyl)-1-oxa-4,9-diazaspiro[5.5]undecan-9-yl)ethyl)thiophen-3-yl)ethoxy)propanamide ditrifluoroacetate]"
0.501 nM,,,"CCc1nc(C(=O)N2CCOC3(CCN(Cc4cccc(CCOCCC(=O)N(CCNCCc5ccc(O)c6c5OCC(=O)N6)C5CCCC5)c4Cl)CC3)C2)cs1 [Example 33a, 3-(2-chloro-3-((4-(2-ethylthiazole-4-carbonyl)-1-oxa-4,9-diazaspiro[5.5]undecan-9-yl)methyl)phenethoxy)-N-cyclopentyl-N-(2-(2-(5-hydroxy-3-oxo-3,4-dihydro-2H-benzo[b][1,4]oxazin-8-yl)ethylamino)ethyl)propanamide, sulphate salt]"

Structure (SMILES),IC50 [1],EC50 (Adrenergic β2),β2 Intrinsic Activity (Adrenergic β2)
"CC(C)c1nc(C(=O)N2CCOC3(CCN(Cc4cccc(CCCCOCCC(=O)N(CCNCCc5ccc(O)c6c5OCC(=O)N6)C5CCCCC5)c4)CC3)C2)cs1 [Example 58, N-Cyclohexyl-N-(2-(2-(5-hydroxy-3-oxo-3,4-dihydro-2H-benzo[b][1,4]oxazin-8-yl)ethylamino)ethyl)-3-(4-(3-((4-(2-Isopropylthiazole-4-carbonyl)-1-oxa-4,9-diazaspiro[5.5]undecan-9-yl)methyl)phenyl)butoxy)propanamide ditrifluoroacetate]",0.0631 nM,100 nM,0.9

# Reference: patent US8476265B2, “Compounds-801” (AstraZeneca AB, priority 2010, dated 2013)
